In ChEMBL document CHEMBL3120118, “Evaluation of 1,2,5-thiadiazoles as modulators of M₁/M₅ muscarinic receptor subtypes” (Bioorg Med Chem, 2014):
Activity calls are given as the source filed them. The calls are words filed in the database; no cut-off is given here.

Key:
[1] = Solubility of the compound in 50% DMSO; format: physicochemical
[2] = target: T1, Muscarinic acetylcholine receptor M5 (Homo sapiens) (UniProt P08912); experiment: Modulation of human muscarinic M5 receptor expressed in mouse A9 L cells assessed as competitive inhibition of carbachol-induced phosphoinositide metabolism by Schild plot analysis; format: cell-based; details: A9L
T1 sequence (whole entry): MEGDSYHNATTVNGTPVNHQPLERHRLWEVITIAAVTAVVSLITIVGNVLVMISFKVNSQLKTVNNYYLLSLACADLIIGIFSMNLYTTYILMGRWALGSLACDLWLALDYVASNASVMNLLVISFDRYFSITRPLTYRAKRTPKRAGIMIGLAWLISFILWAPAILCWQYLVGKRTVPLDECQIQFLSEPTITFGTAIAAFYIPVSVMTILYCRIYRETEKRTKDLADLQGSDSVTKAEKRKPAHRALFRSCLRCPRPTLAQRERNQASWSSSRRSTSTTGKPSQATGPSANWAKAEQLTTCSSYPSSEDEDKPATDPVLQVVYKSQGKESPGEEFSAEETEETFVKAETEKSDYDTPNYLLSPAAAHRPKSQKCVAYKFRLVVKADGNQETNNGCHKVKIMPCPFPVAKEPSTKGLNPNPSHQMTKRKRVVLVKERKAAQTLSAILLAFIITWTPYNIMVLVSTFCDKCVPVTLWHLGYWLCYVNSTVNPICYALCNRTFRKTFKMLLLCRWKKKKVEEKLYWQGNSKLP

[3] = target: T2, Muscarinic acetylcholine receptor M1 (Homo sapiens) (UniProt P11229); experiment: Modulation of human muscarinic M1 receptor expressed in mouse A9 L cells assessed as effect on carbachol-induced phosphoinositide metabolism at 10 to 300 uM by Schild plot analysis; format: cell-based; details: A9L
T2 sequence (whole entry): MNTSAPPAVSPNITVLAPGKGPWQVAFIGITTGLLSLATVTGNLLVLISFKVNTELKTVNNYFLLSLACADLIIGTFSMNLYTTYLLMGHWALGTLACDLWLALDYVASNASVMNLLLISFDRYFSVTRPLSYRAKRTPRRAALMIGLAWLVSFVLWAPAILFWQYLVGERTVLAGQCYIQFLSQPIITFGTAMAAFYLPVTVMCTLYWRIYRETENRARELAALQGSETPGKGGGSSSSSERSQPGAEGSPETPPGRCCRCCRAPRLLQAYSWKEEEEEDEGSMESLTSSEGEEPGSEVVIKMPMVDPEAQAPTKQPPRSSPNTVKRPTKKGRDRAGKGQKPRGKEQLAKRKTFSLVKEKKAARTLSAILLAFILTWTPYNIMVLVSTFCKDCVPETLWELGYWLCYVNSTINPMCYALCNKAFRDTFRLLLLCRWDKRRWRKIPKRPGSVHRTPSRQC

[4] = target: T2, Muscarinic acetylcholine receptor M1 (Homo sapiens); experiment: Modulation of human muscarinic M1 receptor expressed in mouse A9 L cells assessed as effect on carbachol-induced phosphoinositide metabolism at 1 uM by Schild plot analysis; format: cell-based; details: A9L
[5] = target: T1, Muscarinic acetylcholine receptor M5 (Homo sapiens); experiment: Modulation of human muscarinic M5 receptor expressed in mouse A9 L cells assessed as inhibition of carbachol-induced phosphoinositide metabolism at 1 to 100 uM after 1 hr by topcount analysis; format: cell-based; details: A9L
[6] = target: T2, Muscarinic acetylcholine receptor M1 (Homo sapiens); experiment: Modulation of human muscarinic M1 receptor expressed in mouse A9 L cells assessed as effect on carbachol-induced phosphoinositide metabolism at 1 to 100 uM after 1 hr by topcount analysis; format: cell-based; details: A9L
[7] = target: T2, Muscarinic acetylcholine receptor M1 (Homo sapiens); experiment: Stimulation of human muscarinic M1 receptor expressed in mouse A9 L cells at 1 to 100 uM after 1 hr by topcount analysis; format: cell-based; details: A9L
[8] = target: T1, Muscarinic acetylcholine receptor M5 (Homo sapiens); experiment: Stimulation of human muscarinic M5 receptor expressed in mouse A9 L cells at 1 to 100 uM after 1 hr by topcount analysis; format: cell-based; details: A9L
[9] = target: T1, Muscarinic acetylcholine receptor M5 (Homo sapiens); experiment: Modulation of human muscarinic M5 receptor expressed in mouse A9 L cells assessed as effect on carbachol-induced phosphoinositide metabolism at 1 to 100 uM after 1 hr by topcount analysis; format: cell-based; details: A9L
[10] = target: T1, Muscarinic acetylcholine receptor M5 (Homo sapiens); experiment: Modulation of human muscarinic M5 receptor expressed in mouse A9 L cells assessed as inhibition of carbachol-induced phosphoinositide metabolism at 100 uM after 1 hr by topcount analysis; format: cell-based; details: A9L
[11] = target: T2, Muscarinic acetylcholine receptor M1 (Homo sapiens); experiment: Modulation of human muscarinic M1 receptor expressed in mouse A9 L cells assessed as inhibition of carbachol-induced phosphoinositide metabolism at 100 uM after 1 hr by topcount analysis; format: cell-based; details: A9L

With `COc1nsnc1OCCOCCOCc1ccccc1` the solubility [1] was “Insoluble”.

With `COc1nsnc1OCCN(C)C` the inhibition [2] was “Dose-dependent effect”, the Activity [3] was “Active” and the Activity [4] was “inactive”. For the same compound, the inhibition [5] was “Active”, the Activity [6] was “inactive” and the Activity [7] was “inactive”. For the same compound, the Activity [8] was “inactive”.

For `COc1nsnc1OCCOCCOCCOc1nsnc1OC`, the solubility [1] was “Insoluble”.

In the case of `COc1nsnc1OCCO`, the Activity [9] is reported as “inactive”, the Activity [6] is reported as “inactive” and the Activity [7] is reported as “inactive”. The Activity [8] was “inactive”.

In the case of `COc1nsnc1OCC[N+](C)(C)C`, the inhibition [10] is reported as “Active”, the inhibition [11] is reported as “Active” and the Activity [7] is reported as “inactive”. For the same compound, the Activity [8] was “inactive”.

In the case of `COc1nsnc1OCCOCCOCCO`, the Activity [9] is reported as “inactive”, the Activity [6] is reported as “inactive” and the Activity [7] is reported as “inactive”. For the same compound, the Activity [8] was “inactive”.

For `COc1nsnc1OCCOCCOCCOCCOc1nsnc1OC`, the solubility [1] was “Insoluble”.

With `COc1nsnc1OCCOCCOCCOCCO` the Activity [9] was “inactive”, the Activity [6] was “inactive” and the Activity [7] was “inactive”. The Activity [8] was “inactive”.
